Where a name gives a salt, the structure may show the parent alone.
System: AB-PINACA antibody (raised against immunogen 2 of Example 6)
Experiment: AB-PINACA ELISA, final validated kit with Tracer-2 (Example 10), specificity
Assay type: binding
Details: AB-PINACA N-Pentanoic acid = 100
Experimental: A microtitre plates was precoated with AB-PINACA antibody (raised against immunogen 2 of Example 6). Pinaca derivative (antigen), if present in the sample competes with the horseradish peroxidase labelled AB-PINACA (enzyme labelled antigen, herein Tracer-2 of Example 8) for a limited number of antibody sites on the microtitre plate. After incubation at room temperature to allow a competition reaction to take place, the microtitre plate was washed to remove excess reagents. The enzyme substrate ([…]) was added. After an incubation period to allow maximum colour development, the colour reaction was stopped by the addition of acid. This produces a colour change from blue to yellow, and the absorbances are read at 450 nm. A standard curve was then constructed to determine the Pinaca derivative's concentration in the sample.
All reagents were left to reach room temperature (+15 to +25° C.) prior to use. In order to minimise edge effects microtitre plate was sealed with an adhesive plate sealer.
The assay was performed in duplicate. The following layout was used for a test plate where each box represents 2 wells.
• a) The following was pipetted into the appropriate wells of the microtitre plate:
• b) The microtitre plate was gently tapped plate from side to side for a few seconds. • c) The microtitre plate was covered with a plate sealer before incubating for 30 minutes at room temperature (+15 to +25° C.) in the dark. • d) The plate was inverted and the liquid was tapped out. • e) The plate was washed 6 times with diluted wash buffer (ensuring all wells were filled), over a 10-15 minute period. After the final wash the liquid was discarded and the plate was tapped onto lint free tissue paper until completely dry. • f) Immediately after washing, 125 μL of the one shot substrate II solution was pipetted into each well using a multichannel pipette. The microtitre plate was gently tapped from side to side and incubated for (20±2 minutes) at room temperature (+15 to +25° C.) in the dark. • g) The colour reaction was stopped by the addition of 100 μL of stop solution per well. A colour change from blue to yellow should be evident. • h) The optical density was measured at 450 nm within 10 minutes of stopping the colour reaction. The use of a 630 nm filter is recommended as the reference wavelength, if available. Standard Curve and Interpretation of Results • a) The mean absorbance of the standards, controls and samples were calculated. • b) The absorbances of standards against log10 (standard concentration) were plotted. • c) The control and sample concentrations were read from the standard curve. • d) To obtain concentrations for urine samples in ng/mL, the results were multiplied by 3 to take into account the dilution factor. • e) To obtain concentrations for whole blood samples in ng/mL, the results were multiplied by 4 to take into account the dilution factor. • f) It is recommended that a 4 parameter curve fit method is used when generating the standard curve. Limits of Detection

SMILES | % Cross-Reactivity [%]
CCCCCn1nc(C(=O)NC23CC4CC(CC(O)(C4)C2)C3)c2ccccc21 [3-OH AKB-48] | <1
CC(C)(C)C(NC(=O)c1nn(CCCCCF)c2ccccc12)C(N)=O (stereo not drawn) [5-Fluoro ADB-PINACA] | 9.8
O=C(Oc1cccc2cccnc12)c1cn(CCCCCO)c2ccccc12 [PB-22 N-(5-hydroxypentyl) metabolite] | <1
O=C(O)CCCCn1cc(C(=O)Oc2cccc3cccnc23)c2ccccc21 [PB-22 N-Pentanoic acid] | <1
CCCCCn1cc(C(=O)NC23CC4CC(CC(O)(C4)C2)C3)c2ccccc21 [3-OH SDB-001] | <1
CC(C)(C)C(NC(=O)c1nn(CCCCCO)c2ccccc12)C(N)=O (stereo not drawn) | 15.2
CC(C)C(NC(=O)c1nn(Cc2ccc(F)cc2)c2ccccc12)C(=O)O (stereo not drawn) [AB-FUBINACA carboxylic acid] | 4.5
CC(C)C(NC(=O)c1nn(CCCC(O)CF)c2ccccc12)C(N)=O (stereo not drawn) | 24.1
CC(O)CCCn1nc(C(=O)NC23CC4CC(CC(C4)C2)C3)c2ccccc21 (stereo not drawn) [AKB48 N-(4-hydroxypentyl) metabolite] | <1
CCCCCn1nc(C(=O)NC(C(=O)O)C(C)C)c2ccccc21 (stereo not drawn) [AB-PINACA carboxylic acid] | <1
CC(O)CCCn1nc(C(=O)NC(C(N)=O)C(C)C)c2ccccc21 (stereo not drawn) [4-Hydroxypentyl AB-PINACA, 1-(4-hydroxypentyl) AB-Pinaca] | 85.2
O=C(c1cn(CCCCCO)c2ccccc12)C12CC3CC(CC(C3)C1)C2 [AB-001 N-Pentanol] | <1
O=C(NC12CC3CC(CC(C3)C1)C2)c1nn(CCCCCO)c2ccccc12 [AKB48 N-(5-hydroxypentyl) metabolite] | <1
O=C(O)CCCCn1nc(C(=O)NC23CC4CC(CC(C4)C2)C3)c2ccccc21 [AKB48 N-Pentanoic acid metabolite] | <1
CCCCCn1cc(C(=O)NC(C(N)=O)C(C)(C)C)c2ccccc21 (stereo not drawn) [ADBICA] | 0.7
COc1cccc2c(C(=O)N[C@@H]3C(C)(C)[C@@H]4CC[C@@]3(C)C4)cn(CCN3CCOCC3)c12 [MN-25] | <1
CC(C)(C)C(NC(=O)c1nn(CCCCC(=O)O)c2ccccc12)C(N)=O (stereo not drawn) [ADB-PINACA pentanoic acid metabolite] | 32.8
CC(C)[C@H](NC(=O)c1nn(CC2CCCCC2)c2ccccc12)C(N)=O [AB-CHMINACA] | 3.8
CCCCCn1cc(C(=O)c2ccc(OC)cc2)c2ccccc21 [RCS-4] | <1

Same assay, conditions: negative response

SMILES | Concentration of compounds that elicit a negative response at the indicated concentration [ng/mL]
O=C(O)CCCCn1cc(C(=O)C23CC4CC(CC(C4)C2)C3)c2ccccc21 [AB001 N-Pentanoic Acid] | 100
CCCCCn1cc(C(=O)Nc2cccc3ccccc23)c2ccccc21 [NNEI] | 100
CCCCCn1cc(C(=O)c2cccc3ccccc23)c2ccccc21 [JWH-018] | 100
CC1(C)C(C(=O)c2cn(CC3CCOCC3)c3ccccc23)C1(C)C [Hapten A-834735] | 100
CCCCCn1cc(C(=O)c2ccc(Cl)c3ccccc23)c2ccccc21 [JWH-398] | 100
CCCCCn1cc(C(=O)c2cccc3ccccc23)c2cc(O)ccc21 [JWH-018 5-Hydroxyindole] | 100
CNC(=C[N+](=O)[O-])NCCSCc1ccc(CN(C)C)o1 [Ranitidine HCl] | 10000
CCCCCn1cc(C(=O)C2C(C)(C)C2(C)C)c2ccccc21 [UR-144] | 100
N#CCCCCn1cc(C(=O)c2cccc3ccccc23)c2ccccc21 [AM-2232] | 100
O=C(c1ccccc1I)c1cn(CCCCCF)c2ccccc12 [AM-694] | 100
O=C(c1cccc2ccccc12)c1cn(CCCCO)c2ccccc12 [JWH-073 N-Butanol] | 100
O=C(NC12CC3CC(CC(C3)C1)C2)c1cn(CCCCCF)c2ccccc12 [STS-135] | 100
CCCCn1cc(C(=O)c2cccc3ccccc23)c2cc(O)ccc21 [JWH-073 5-Hydroxyindole] | 100
O=C(Oc1cccc2cccnc12)c1cn(CCCCCF)c2ccccc12 [5-fluoro PB-22] | 100
O=C(c1cccc2ccccc12)c1nn(CCCCCF)c2ccccc12 [THJ 2201] | 100
CCCCCCn1cc(C(=O)c2cccc3ccccc23)c2ccccc21 [JWH-019] | 100
O=C(c1cccc2ccccc12)c1cn(CCCCCF)c2cc(O)ccc12 [AM-2201 6-Hydroxyindole] | 100
COc1ccccc1CC(=O)c1cn(CCCCCC(=O)O)c2ccccc12 [JWH-250 N-(5-Carboxypentyl)] | 100
O=C(c1cccc2ccccc12)c1cn(CCN2CCOCC2)c2ccccc12 [JWH-200] | 100

SMILES | Concentration of compounds that elicit a negative response at the indicated concentration [ng/mL]
CCCCCn1cc(C(=O)Cc2ccccc2Cl)c2ccccc21 [JWH-203] | 100
COc1ccccc1CC(=O)c1cn(CCC2CCCCC2)c2ccccc12 [RCS-8] | 100
CCCCCn1cc(C(=O)c2cccc3ccccc23)c2c(O)cccc21 [JWH-018 4-Hydroxyindole] | 100
O=C(O)CCCn1cc(C(=O)c2cccc3ccccc23)c2ccccc21 [JWH-073 N-Butanoic acid] | 100
CCCCCn1cc(C(=O)c2cccc3ccccc23)c2ccc(O)cc21 [JWH-018 6-Hydroxyindole] | 100
CCCCCn1cc(C(=O)Oc2cccc3cccnc23)c2ccccc21 [PB-22] | 100
CCCCCn1cc(C(=O)c2ccc(CC)c3ccccc23)c2ccccc21 [JWH-210] | 100
O=C(Oc1cccc2cccnc12)c1cn(CC2CCCCC2)c2ccccc12 [BB-22] | 100
COc1ccccc1CC(=O)c1cn(CCCCCO)c2ccccc12 [JWH-250 N-(5-Hydroxypentyl)] | 100
CC1(C)C(C(=O)c2cn(CCCCC(=O)O)c3ccccc23)C1(C)C [UR-144 N-Pentanoic acid] | 100
O=C(O)c1cn(CC2CCCCC2)c2ccccc12 [BB-22 3-Carboxyindole metabolite] | 100
COc1ccccc1CC(=O)c1cn(CCCC(C)O)c2ccccc12 (stereo not drawn) [JWH 250 N-(4-hydroxypentyl) metabolite] | 100
CCCCCn1cc(C(=O)O)c2ccccc21 [PB-22 3-Carboxyindole metabolite] | 100
CC(C)NCC(O)COc1cccc2ccccc12 (stereo not drawn) [Propranolol HCL] | 10000
CN(C)C(=N)N=C(N)N [Metformin HCl] | 10000
CCCCn1cc(C(=O)c2cccc3ccccc23)c2c(O)cccc21 [JWH-073 4-Hydroxyindole] | 100
CC1(C)C(C(=O)c2cn(CCCCCF)c3ccccc23)C1(C)C [XLR-11] | 100
O=C(c1cccc2ccccc12)c1cn(CCCCCF)c2ccccc12 [AM-2201] | 100
O=C(O)c1cn(CCCCCF)c2ccccc12 [5-fluoro PB-22 3-carboxyindole] | 100

Reference: patent publication US10509046B2, “Detection of indazole synthetic cannabinoids” (Randox Laboratories Limited, priority 2014, dated 2019)
